Measured values published in patent publication US20260137711A1, “COMBINATION THERAPY FOR CANCER” (NATIONAL UNIVERSITY OF IRELAND, GALWAY, priority 2022, published 2026).

Assays:
Type in all cases: cell-based, human
MCF10A cells [1] = experiment: Flow cytometry of cell cycle distribution and DNA synthesis (EdU/DAPI)
Description: (c) A typical profile obtained by flow cytometry of MCF10A cells labelled with EdU and DAPI that indicates the gating applied in order to determine the percentage of cells with sub-G1 DNA content (sub-G1), G1 cells (G1), replicating early-mid S phase cells (Early-Mid S/EdU+), replicating mid-late S phase cells (Mid-Late S/EdU+), cells with S phase DNA content but not replicating (2n<& <4n/EdU−), and cells either in G2 or mitosis (G2/M).(d-f) MCF10A cells were mock treated or treated with 10 μM XL413, in the presence or absence of increasing concentrations of the CDK8 inhibitor BI-1347, for 24 hours. (d) Cells were labelled with EdU for last 30 minutes and DNA synthesis, DNA content and cell cycle distribution were assessed by flow cytometry and analysed using the gating strategy described in above (FIG. 2c). (e) Distribution of cells in the cell cycle. (f) Fluorescence intensity, proportional to EdU incorporation, in individual S phase cells. Long and short horizontal black lines indicate the median and the interquartile range, respectively, extending from the 25th to the 75th percentile for ˜3,810 cells for each condition. Data is from a single experiment.
FIG. 3: CDK8 activity is required for efficient DNA synthesis under conditions of limited CDC7 kinase activity (a-c) MCF10A cells were mock treated or treated with 31 nM BI-1347, in the presence or absence of increasing concentrations of the CDC7 inhibitors, XL413 (a-c) and TAK-931 (d-f), for 24 hours. (a and d) Cells were labelled with EdU for last 30 minutes and DNA synthesis, DNA content and cell cycle distribution were assessed by flow cytometry and analysed using the gating strategy described in FIG. 2c.c (b and e) distribution of cells in the cell cycle. (c and f) Fluorescence intensity, proportional to EdU incorporation, in individual S phase cells. Long and short horizontal black lines indicate the median and the interquartile range, respectively, extending from the 25th to the 75th percentile for ˜4,190 cells for each condition. Data is from a single experiment.
To analyse the cell cycle and DNA synthesis, nascent DNA was labelled by incubating cells with 10 μM EdU for either 20 or 30 minutes prior to harvest, washing with PBS, and then by resuspension in PBS containing 70% EtOH for 1 hour at −20° C. After a PBS wash, incorporated EdU was labelled by incubating cells in click reaction buffer (PBS containing 10 μM 6-Carboxyfluorescine-TEG-azide, 10 mM Sodium-L-ascorbate, 2 mM Copper-II-Sulphate) for 30 minutes protected from light. Cells were washed in PBS containing 1% BSA, 5% Tween 20 and then DNA stained in PBS containing 1% BSA and 1 μg/ml DAPI. All washes involve: centrifugation at 400×g for 5 minutes, removal of supernatant from pellet, resuspension in the appropriate buffer, recentrifugation and removal of supernatant from the pellet prior to the next step.
Fluorescence intensity data for 6-Carboxyfluorescine (488_530_30 nm) and DAPI (405_450_50 nm) were acquired for 10,000 single cells on a BD FACS Canto II and analysed using FlowJo software. To further analyse fluorescence intensity, proportional to EdU incorporation, for individual cells, gates were applied on DAPI-EdU biparametric dot plots to select for EdU positive S phase cells using FlowJo. According to the required analysis these gates included either all S phase cells, or only early or late S phase cells. Fluorescence intensity (488_530_30) values per cell were exported and plotted as scatter dot plots using GraphPad prism. For comparisons of mean fluorescence intensity of a cell population across three biological repeat experiments, all fluorescence intensity values were normalised to the maximum fluorescence intensity of the untreated control sample of each respective experiment to account for absolute differences in EdU staining. […]

U-2 OS = experiment: as above; conditions: 31 nM BI-1347 with 1.25 μM XL413, 24 hours
Description: (§1) Supplemental FIG. 3: Characteristic phenotypes associated with inhibition of CDC7 and CDK8 are observed in multiple cell lines A panel of different cell lines, including: MDA-MB-468 (a-c); MDA-MB-231 (d-f); and U-2 OS (g-i), were mock treated or treated with 1.25 μM XL413 and/or 31 nM BI-1347BI-1347 for 24 hours. Cells were labelled with EdU for last 30 minutes and DNA synthesis, DNA content and cell cycle distribution were assessed by flow cytometry and analysed using the gating strategy described in FIG. 2c. (b, e and h) distribution of cells in the cell cycle. (c, f and i) Fluorescence intensity, proportional to EdU incorporation, in individual S phase cells. Long and short horizontal black lines indicate the median and the interquartile range, respectively, extending from the 25th to the 75th percentile for ˜3,922 (MDA-MB-468), ˜3,291 (MDA-MB-231), and ˜4,628 (U-2 OS) cells for each condition. Data is from a representative experiment from 3 biological repeats. […]
(§2) Fluorescence intensity data for 6-Carboxyfluorescine (488_530_30 nm) and DAPI (405_450_50 nm) were acquired for 10,000 single cells on a BD FACS Canto II and analysed using FlowJo software. To further analyse fluorescence intensity, proportional to EdU incorporation, for individual cells, gates were applied on DAPI-EdU biparametric dot plots to select for EdU positive S phase cells using FlowJo. […] Fluorescence intensity (488_530_30) values per cell were exported and plotted as scatter dot plots using GraphPad prism. For comparisons of mean fluorescence intensity of a cell population across three biological repeat experiments, all fluorescence intensity values were normalised to the maximum fluorescence intensity of the untreated control sample of each respective experiment to account for absolute differences in EdU staining. The mean fluorescence intensity values of these cell populations across three biological repeat experiments are expressed as a ratio relative to a control sample and plotted as a scatter dot plot using GraphPad prism.

MDA-MB-231 = experiment: as above; conditions: 31 nM BI-1347 with 1.25 μM XL413, 24 hours
Description: as §1, §2

MDA-MB-468 = experiment: as above; conditions: 31 nM BI-1347 with 1.25 μM XL413, 24 hours
Description: as §1, §2

MCF10A cells [2] = experiment: Long-term cell proliferation assay, crystal violet staining; conditions: 31 nM BI-1347 alone, 7 days, compared to controls
Description: (a and b) MCF10A cells were plated at equal low density and then either mock treated or treated with 31 nM BI-1347, in the presence or absence of XL413 at a doses of (a) 1.25 μM or (b) 10 μM over a 7 day period. Representative images of crystal violet-stained cells are shown alongside quantitation of crystal violet intensity normalised to the untreated control.
Briefly, MCF10A cells were mock-treated or treated in the continued presence of a dual-specificity CDK8/CDK19 inhibitor, BI-1347, in the presence or absence of XL413 at two different concentrations (1.25 μM and 10 μM) for a 7-day period. Relative cell proliferation was estimated by staining cells with crystal violet and measuring staining intensities. […] Importantly the addition of BI-1347 to XL413 caused a further reduction in cell number with staining intensity decreasing by 70% and 95% respectively.
MCF10A cells were seeded at 4,000 cells per well of a 6 well plate and after 24 hours were treated with inhibitors before being incubated for 7 days at 37° C. with 5% CO2. Media was removed from the cells which were then washed with PBS and air dried before being fixed with 100% methanol for 1 hour. Following removal of methanol the plates were air-dried, stained with crystal violet staining solution (0.2% crystal violet, 25% methanol) for 1 hour at room temperature, washed with ddH2O and air-dried. Plates were scanned using a HP Scanjet 4050, to generate images of crystal violet stained cells, and crystal violet staining intensity was acquired using the Odyssey infrared imaging system and Image Studio software (LI-COR Biosciences).

[3] = BI-1347 alone at increasing concentrations, 24 hours
[4] = CDC7 inhibitor alone at increasing concentrations, absence of CDK8/CDK19i, 24 hours
[5] = CDC7 inhibitor at increasing concentrations together with the CDK8/CDK19 inhibitor (31 nM BI-1347), 24 hours, all doses tested

Row | Compound | cell cycle distribution (MCF10A cells [1]; [3]) | rate of DNA synthesis in S phase cells (MCF10A cells [1]; [3]) | increase in the potency of the CDC7 inhibitor in replication assays (MCF10A cells [1]; BI-1347 in combination with CDC7 inhibitors, decrease in rate of DNA synthesis) [fold] | potentiation of cell cycle and DNA replication phenotypes imposed by CDC7 inhibition (U-2 OS) | potentiation of cell cycle and DNA replication phenotypes imposed by CDC7 inhibition (MDA-MB-231) | potentiation of cell cycle and DNA replication phenotypes imposed by CDC7 inhibition (MDA-MB-468) | decrease in the relative staining intensity (crystal violet) (MCF10A cells [2]) | cell cycle distribution (MCF10A cells [1]; [4]) | rate of DNA synthesis of S phase cells (MCF10A cells [1]; [4]) | cell cycle distribution (MCF10A cells [1]; [5]) | rate of DNA synthesis (MCF10A cells [1]; [5])
1 | CN(C)C(=O)Cn1ccc(-c2ccc(-c3cncc4ccccc34)cc2)c1 [BI-1347] | dose-dependent increase in G1 phase cells with a corresponding decrease in early-mid S phase cells | subtle and dose-independent decrease | ~10 | strong potentiation | strong potentiation | strong potentiation | approximately 30% | – | – | – | –
2 | Cc1n[nH]cc1-c1cc2[nH]c([C@@H]3CC4CCN3CC4)nc(=O)c2s1 [TAK-931] | – | – | – | – | – | – | – | dose-dependent accumulation of mid-late S phase cells | corresponding decrease | more pronounced accumulation of cells in mid-late S phase | much more profound decrease
